Here are results for 19 compounds from ChEMBL document CHEMBL5223157, “Divergent reactivity of usnic acid and evaluation of its derivatives for antiproliferative activity against cancer cells” (Bioorg Med Chem, 2023).

In data set [1] the test system is HeLa. The data set is described as follows: Antiproliferative activity against human HeLa cells assessed as reduction in cell viability measured at 24 hrs by MTT assay. It is filed as functional, cell-based. A general note: Tetrazolium dyes change colour on reduction, which living cells bring about.
For data set [2], the system named is HeLa. The data set can be described thus: Antiproliferative activity against human HeLa cells assessed as reduction in cell viability measured at 48 hrs by MTT assay. It is filed as functional, cell-based.
For data set [3], the system named is HDFa. The data set can be described thus: Antiproliferative activity against human HDFa cells assessed as reduction in cell viability measured at 48 hrs by MTT assay. It counts as functional, cell-based.
Data set [4] can be described thus: Half life in human liver microsomes. It is filed as ADME, Microsome. In general terms: Microsomes from liver hold many membrane-bound enzymes, among them those of drug oxidation.
Data set [5] is described as follows: Aqueous solubility of compound in PBS at pH 7.4. It is filed as physicochemical.
Data set [6] can be described thus: Aqueous solubility of the compound in simulated gastric fluid. It counts as ADME.
The nature of data set [7]: Aqueous solubility of the compound in simulated intestinal fluid. It counts as ADME.
Data set [8] can be described thus: Permeability across apical to basolateral side in human Caco-2 cells. It counts as ADME, cell-based. The settings on record: read-out: permeability. (Caco-2 cells form a polarised layer with tight junctions and transporters.)
Data set [9] is described as follows: Permeability across basolateral to apical side in human Caco-2 cells. It is filed as ADME, cell-based. As to conditions: read-out: permeability.
Data set [10] is described as follows: Lipophilicity, logD of the compound. It counts as physicochemical. As to conditions: octanol/water.
Data set [11] in a line: Plasma protein binding in human relative to control. It is filed as ADME, cell-free. As to conditions: read-out: PPB (converted).
Data set [12] can be described thus: Drug recovery in human plasma relative to control. It counts as ADME, cell-free.
The target in data set [13] is T1, CYP2C8 (Homo sapiens, UniProt P10632).
T1 sequence (P10632 whole entry): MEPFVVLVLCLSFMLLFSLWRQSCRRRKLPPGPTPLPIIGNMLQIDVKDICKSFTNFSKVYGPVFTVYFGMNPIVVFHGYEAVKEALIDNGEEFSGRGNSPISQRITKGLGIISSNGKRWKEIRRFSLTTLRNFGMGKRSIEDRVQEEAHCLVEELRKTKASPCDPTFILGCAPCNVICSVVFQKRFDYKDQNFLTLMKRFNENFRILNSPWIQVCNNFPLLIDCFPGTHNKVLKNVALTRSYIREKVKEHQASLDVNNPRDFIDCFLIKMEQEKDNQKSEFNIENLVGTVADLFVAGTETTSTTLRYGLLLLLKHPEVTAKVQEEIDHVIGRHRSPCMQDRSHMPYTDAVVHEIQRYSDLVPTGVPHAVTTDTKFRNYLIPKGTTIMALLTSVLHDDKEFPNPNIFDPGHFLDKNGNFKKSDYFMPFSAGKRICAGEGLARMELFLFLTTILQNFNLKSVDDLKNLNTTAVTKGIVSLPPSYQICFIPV
The data set is described as follows: Inhibition of CYP2C8 in human liver microsomes at 10 uM relative to control. It counts as ADME, Microsome.

Data set [14] deals with CYP2C9 (Homo sapiens, UniProt P11712). The data set is described as follows: Inhibition of CYP2C9 in human liver microsomes at 10 uM relative to control. It counts as ADME, Microsome.
For data set [15], the target named is CYP2C19 (Homo sapiens, UniProt P33261). The data set is described as follows: Inhibition of CYP2C19 in human liver microsomes at 10 uM relative to control. It counts as ADME, Microsome.
Data set [16] deals with CYP3A (Homo sapiens, UniProt P08684+P20815+P24462+Q9HB55). The data set can be described thus: Inhibition of CYP3A in human liver microsomes at 10 uM relative to control. It is filed as ADME, Microsome.
Data set [17] addresses Cytochrome P450 2C19 (Homo sapiens, UniProt P33261). The data set can be described thus: Inhibition of CYP2C19 in human liver microsomes. It is filed as ADME, Microsome.
The target of data set [18] is Cytochrome P450 2C9 (Homo sapiens, UniProt P11712). The data set is described as follows: Inhibition of CYP2C9 in human liver microsomes. It counts as ADME, Microsome.
Data set [19] concerns the target T2, Cytochrome P450 2C8 (Homo sapiens, UniProt P10632).
T2 sequence (P10632 whole entry): T1 sequence (P10632 whole entry)
The data set is described as follows: Inhibition of CYP2C8 in human liver microsomes. It is filed as ADME, Microsome.

Data set [20] in a line: Toxicity in nude mouse xenografted with human MCF7 cells assessed as side effects at 400 mg/kg, po. It counts as organism-based. The settings on record: in vivo.

Each structure is given as a SMILES string. pIC50: −log10 of the molar value. ≈ marks a conversion by molar mass, not a printed value. Calls of active or inactive are those of the source. The rule behind the calls is not given here. Bounds are passed on as bounds.

CYP2C19, sequence (P33261 whole entry): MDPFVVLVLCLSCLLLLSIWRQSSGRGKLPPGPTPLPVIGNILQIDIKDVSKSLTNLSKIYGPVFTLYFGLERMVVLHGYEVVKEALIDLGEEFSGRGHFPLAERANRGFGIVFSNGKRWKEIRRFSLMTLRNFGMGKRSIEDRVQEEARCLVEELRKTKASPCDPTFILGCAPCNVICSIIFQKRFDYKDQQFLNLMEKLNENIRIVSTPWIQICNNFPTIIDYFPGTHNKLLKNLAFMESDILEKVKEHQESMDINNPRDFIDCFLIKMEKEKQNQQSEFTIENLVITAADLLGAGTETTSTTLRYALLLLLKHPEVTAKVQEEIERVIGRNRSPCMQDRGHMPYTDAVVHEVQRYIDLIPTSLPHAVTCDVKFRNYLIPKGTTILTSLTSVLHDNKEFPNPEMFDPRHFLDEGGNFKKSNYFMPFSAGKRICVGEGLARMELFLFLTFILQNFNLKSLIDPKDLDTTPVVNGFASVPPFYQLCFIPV
Cytochrome P450 2C19, sequence (P33261 whole entry): as above
CYP2C9, sequence (P11712 whole entry): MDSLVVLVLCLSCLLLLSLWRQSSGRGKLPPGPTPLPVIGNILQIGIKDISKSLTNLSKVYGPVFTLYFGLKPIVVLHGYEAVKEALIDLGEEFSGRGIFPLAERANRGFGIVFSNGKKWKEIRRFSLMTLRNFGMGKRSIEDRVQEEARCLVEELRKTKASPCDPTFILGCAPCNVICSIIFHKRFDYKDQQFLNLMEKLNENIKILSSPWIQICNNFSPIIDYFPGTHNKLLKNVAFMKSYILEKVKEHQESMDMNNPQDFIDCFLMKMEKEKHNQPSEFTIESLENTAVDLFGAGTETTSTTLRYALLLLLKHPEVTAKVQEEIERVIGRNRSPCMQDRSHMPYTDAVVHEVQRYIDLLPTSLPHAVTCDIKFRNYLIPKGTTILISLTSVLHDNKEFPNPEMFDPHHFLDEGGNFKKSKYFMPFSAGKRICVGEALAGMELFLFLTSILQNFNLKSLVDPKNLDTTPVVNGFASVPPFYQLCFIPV
Cytochrome P450 2C9, sequence (P11712 whole entry): as above

In the case of `CC(=O)c1c(O)c(C)c(O)c2c1OC1=Cc3[nH]nc(C)c3C(=O)[C@@]12C`, the pIC50 was 5.87 in data set [1] and 6.51 in data set [2]. The outcome in [3] was inactive.

Consider `CC(=O)c1c(O)c(C)c(O)c2c1OC1=CC(O)=C(/C(C)=N/N)C(=O)[C@@]12C`, for which the pIC50 in [1] and in data set [2] was under 4.82 in each case.

As for `CC(=O)c1c(O)c(C)c(O)c2c1O[C@@H]1Cc3n[nH]c(C)c3C(=O)[C@]21C`, the negative logarithm of the IC50 (pIC50) in [1] and in [2] was under 4.82 each time.

With `CC(=O)c1c(O)c(C)c(O)c2c1OC1=Cc3c(c(C)nn3CCBr)C(=O)[C@@]12C`, the pIC50 in data set [1] and in data set [2] was under 4.82 each time.

Compound `CC(=O)c1c(O)c(C)c(O)c2c1OC1=CC(=O)c3c(n[nH]c3C)[C@@]12C` registered a half-life in [4] of over 1 h. The pIC50 in [1] was 5.72; in data set [2], 6.06; in [17] it was 8.05; in [18] it was 7.03; in data set [19], 5.72. Also, the result in data set [3] was inactive. Besides, the results for the solubility in [5], in [6] and in [7] were 4 µM (≈ 1.36 µg/mL), over 200 µM and 11.5 µM (≈ 3.91 µg/mL), respectively. In addition, the Papp A→B in data set [8] is 11.3 ×10⁻⁶ cm/s. Also, the Papp B→A in [9] worked out at 1.6 ×10⁻⁶ cm/s. The compound further showed a logD in data set [10] of over 3.68. Further, the fraction unbound in data set [11] was 0.04. In data set [12], this compound returned a Drug recovery of 19%. The inhibition at 10 µM in data set [13] stood at 52.6%; in [14], 74.6%; in data set [15] it was 65.9%; in data set [16] it was 51.3%.

As for `CC(=O)c1c(O)c(C)c(O)c2c1OC1=CC(O)=C(/C(C)=N/N(C)C)C(=O)[C@@]12C`, the negative-log IC50 (pIC50) in data set [1] and in data set [2] was under 4.82 in each case.

In [4], `CC(=O)C1=C(O)C=C2Oc3c(C(C)=O)c(O)c(C)c(O)c3[C@@]2(C)C1=O` [(+)-USNIC ACID] displayed a half-life of 1.32 h. Further, the pIC50 in data set [1] and in [2] was under 4.82 throughout. Moreover, the fraction unbound in data set [11] was 0.0024. In data set [12], this compound came in with a Drug recovery of 95%.

Consider `CC(=O)c1c(O)c(C)c(O)c2c1OC1=CC(=O)c3c(nn(C)c3C)[C@@]12C`, for which the pIC50 in data set [1] was 6.03; in data set [2] it was 6.94. The result in data set [3] was inactive.

Compound `CC(=O)c1c(O)c(C)c(O)c2c1OC1=Cc3onc(C)c3C(=O)[C@@]12C` returned a half-life in data set [4] of 0.383 h. Also, the pIC50 in data set [1] was 5.15; in data set [2] it was 5.66. Moreover, the Activity result in [20] was “Non-Toxic”. Moreover, the solubility in data set [5] is 0.2 µM (≈ 0.0683 µg/mL); in data set [6] it was 37.6 µM (≈ 12.8 µg/mL); in [7], 1.6 µM (≈ 0.546 µg/mL). Moreover, the Papp A→B in [8] was 2.2 ×10⁻⁶ cm/s. The Papp B→A in [9] amounted to 0.2 ×10⁻⁶ cm/s. For the same compound, the logD in data set [10] is 3.32. Also, the fraction unbound in data set [11] was 0.06. For the same compound, the Drug recovery in data set [12] came out at 19%. The results for the inhibition at 10 µM in [13], in data set [15] and in data set [16] were 8.5%, 15.6% and 14.7%, respectively.

`CC(=O)c1c(O)c(C)c(O)c2c1OC1=Cc3c(c(C)nn3C(C)(C)C)C(=O)[C@@]12C`: the pIC50 in data set [1] and in data set [2] was under 4.82 each time.

For the compound `CC(=O)c1c(O)c(C)c(O)c2c1OC1=Cc3c(c(C)nn3C)C(=O)[C@@]12C`, the results for the pIC50 in data set [1] and in data set [2] were under 4.82 and 5.41, respectively.

Consider `COc1cccc2c1C(=O)c1c(O)c3c(c(O)c1C2=O)C[C@@](O)(C(=O)CO)C[C@@H]3O[C@H]1C[C@H](N)[C@H](O)[C@H](C)O1` [DOXORUBICIN], for which the pIC50 is 5.48 in data set [1] and 6.37 in data set [2].

For the compound `CCn1nc(C)c2c1C=C1Oc3c(C(C)=O)c(O)c(C)c(O)c3[C@@]1(C)C2=O`, the pIC50 is under 4.82 in data set [1] and 4.96 in [2].

For `CC(=O)c1c(O)c(C)c(O)c2c1OC1=Cc3c(c(C)nn3-c3ccccn3)C(=O)[C@@]12C`, the pIC50 in data set [1] and in [2] was under 4.82 each time.

In the case of `CC(=O)c1c(O)c(C)c(O)c2c1O[C@@H]1Cc3n[nH]c(C)c3[C@H](O)[C@]21C`, the pIC50 in [1] and in data set [2] was under 4.82 each time.

With `CC(=O)c1c(O)c(C)c(O)c2c1OC1=CC(=O)c3c(C)noc3[C@@]12C`, the pIC50 in data set [1] and in [2] was under 4.82 throughout.

As to `CC(=O)c1c(O)c(C)c(O)c2c1OC1=CC(=O)c3c(C)nn(C)c3[C@@]12C`, the negative logarithm of the IC50 (pIC50) in [1] and in [2] was under 4.82 in each case.

On to `CC(=O)c1c(O)c(C)c(O)c2c1OC1=Cc3c(c(C)nn3CCO)C(=O)[C@@]12C`, for which the negative-log IC50 (pIC50) in data set [1] and in data set [2] was under 4.82 in each case.

`CC(C)=N/N=C(\C)c1c(O)c(C)c(O)c2c1OC1=CC(=O)c3c(n[nH]c3C)[C@@]12C`: the pIC50 was under 4.82 in [1] and 5.06 in data set [2].

The term pIC50 denotes the negative decadic logarithm of the IC50, by convention in mol/L. A word on the half-life: it is how long it takes for the measured level to halve. A high value points to slow decline. Usually solubility stands for how much of the substance goes into solution per volume. High values mean a readily soluble substance, low ones a poorly soluble substance. As usually defined, the logD is the decadic logarithm of the distribution of all forms, ionised or not, between an organic phase and buffer at a given pH. Low values mean lower lipophilicity, high ones higher lipophilicity. As a reminder, the inhibition is the relative decrease from the control value, in per cent.
